Reference: ChEMBL document CHEMBL1201862, “PubChem BioAssay data set” (2004)
Calls of active or inactive are those of the source.

Columns and labels:
[1] = target: T1, Oxysterols receptor LXR-beta (Homo sapiens, UniProt P55055); assay type: functional, cell-based;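 also: Cell-based luminescence dose-response assay of agonist activity at LXR, run as a confirmatory counterscreen to a daf-12 agonist screen; HEK293 cells with Gal4-LXR fusion and GAL4-driven luciferase reporter; agonist potency from rising luciferase signal of a Gal4-LXR reporter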
T1 sequence (P55055 whole entry): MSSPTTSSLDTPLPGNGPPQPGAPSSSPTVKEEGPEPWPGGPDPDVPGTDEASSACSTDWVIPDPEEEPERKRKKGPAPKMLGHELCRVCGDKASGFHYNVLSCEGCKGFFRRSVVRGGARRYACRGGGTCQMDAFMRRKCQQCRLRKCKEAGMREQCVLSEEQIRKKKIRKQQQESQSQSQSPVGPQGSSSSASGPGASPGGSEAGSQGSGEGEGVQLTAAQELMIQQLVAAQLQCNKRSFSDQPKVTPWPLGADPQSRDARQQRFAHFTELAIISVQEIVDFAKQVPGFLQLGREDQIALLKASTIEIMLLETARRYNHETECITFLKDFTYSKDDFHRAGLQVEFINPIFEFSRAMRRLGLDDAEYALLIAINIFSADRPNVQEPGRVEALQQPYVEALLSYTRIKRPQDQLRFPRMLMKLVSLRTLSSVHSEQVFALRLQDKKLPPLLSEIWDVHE

cells [2] = test: cells
[3] = Keap1 Kelch-Nrf2 peptide binding inhibitors, dose response, biochemical, fluorescence polarization, dry powder, set 3 (AID 651806)
[4] = HEK293T cell cytotoxicity, dose response, cytotoxicity control, luminescence plate reader, powder samples, set 4 (AID 651863); assay type: functional, cell-based; settings: HEK293
[5] = target: Metabotropic glutamate receptor 5 (Rattus norvegicus, UniProt P31424); test: Identification of a glycine sulfonamide based non-MPEP site positive allosteric potentiator (PAM) of mGlu5 (calcium_assay).; assay type: functional
[6] = target: Potassium channel subfamily K member 3 (Homo sapiens, UniProt O14649); test: TASK1 (KCNK3) potassium channel inhibitors, SAR follow-up, CHO cells, FluxOR thallium flux (AID 652212); assay type: functional
[7] = target: Voltage-gated inwardly rectifying potassium channel KCNH2 (Homo sapiens, UniProt Q12809); test: hERG channel inhibition in selectivity testing, SAR follow-up, selectivity assay for TASK1 inhibitor project, FluxOR thallium flux, concentration-response, CHO cells (AID 652194); assay type: functional, cell-based
[8] = target: Potassium channel subfamily K member 9 (Homo sapiens, UniProt Q9NPC2); test: TASK3 (KCNK9) channel inhibitors, thallium flux, SAR follow-up, selectivity assay for TASK1 inhibitor project, cell-based, FluxOR thallium flux, concentration-response (AID 652211); assay type: functional;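 also: potency is for inhibitors of the channel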
Streptococcus = test: Group A Streptococcus viability loss, dose response, counter-screen for streptokinase expression inhibitor project, luminescence, BacTiterGlo (AID 1915); assay type: functional, organism-based;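 also: potency for reduction of bacterial viability or growth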
Streptokinase A = target: T2, Streptokinase A (Streptococcus pyogenes serotype M1, UniProt P10520); test: S. pyogenes streptokinase expression inhibitors, potency, dose response, plasminogen activation absorbance, OD405 (AID 1914); assay type: functional, Streptococcus pyogenes M1 GAS;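 also: secreted streptokinase activity via plasminogen activation per viability signal from cell pellet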
T2 sequence (P10520 whole entry): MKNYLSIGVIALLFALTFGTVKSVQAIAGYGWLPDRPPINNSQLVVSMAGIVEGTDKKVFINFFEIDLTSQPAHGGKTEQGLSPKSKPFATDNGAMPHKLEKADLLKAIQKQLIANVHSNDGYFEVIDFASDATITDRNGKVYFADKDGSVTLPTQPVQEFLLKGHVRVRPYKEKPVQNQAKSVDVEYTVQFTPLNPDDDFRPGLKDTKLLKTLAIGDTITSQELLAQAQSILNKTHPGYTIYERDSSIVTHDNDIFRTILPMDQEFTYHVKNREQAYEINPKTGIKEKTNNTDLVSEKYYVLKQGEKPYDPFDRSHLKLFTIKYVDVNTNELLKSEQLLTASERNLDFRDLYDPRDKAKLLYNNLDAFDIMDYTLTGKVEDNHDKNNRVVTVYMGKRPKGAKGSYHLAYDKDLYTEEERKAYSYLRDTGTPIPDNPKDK

[9] = system: Streptococcus sp. 'group A'; test: growth inhibition of control SK(-) GAS strain, dose response, counter-screen for streptokinase expression inhibitor project, luminescence, kanamycin, BacTiterGlo, confirmation (AID 1900); assay type: functional, organism-based
Caspase-6 = Caspase-6 (Homo sapiens, UniProt P55212); test: human caspase-6 inhibitors, dose response, biochemical, VEID-R110 fluorescence, cherry-pick (AID 720632)
[10] = target: Nuclear receptor subfamily 5 group A member 2 (Homo sapiens, UniProt O00482); assay type: functional, cell-based;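 also: HEK293T cells transfected with LRH-1 and a StAR promoter luciferase reporter; potency for inhibitors that lower LRH-1 driven reporter light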
[11] = StAR promoter reporter inhibition counter-screen, dose response, counter-screen for LRH-1 inverse agonist project, cell-based, luminescence, luciferase reporter (AID 651969); assay type: functional
Steroidogenic factor 1 = Steroidogenic factor 1 (Homo sapiens, UniProt Q13285); test: Counterscreen for inverse agonists of the liver receptor homolog-1 (LRH-1; NR5A2): Luminescence-based cell-based high throughput dose response assay to identify inverse agonists of the Steroidogenic Factor 1 Nuclear Receptor (SF1; NR5A1).; assay type: functional
[12] = AlphaScreen signal interference by compounds, dose response, artefact control for ARNT/TACC3 disruptor project, biochemical, dual-tagged ARNT, dry powder (AID 720564)
[13] = target: T3, High affinity choline transporter 1 (Homo sapiens, UniProt Q9GZV3); test: CHT choline uptake inhibitors, dose response, cell-based, HEK-293 hCHT, [3H]-choline uptake (AID 652177); assay type: functional
T3 sequence (Q9GZV3 whole entry): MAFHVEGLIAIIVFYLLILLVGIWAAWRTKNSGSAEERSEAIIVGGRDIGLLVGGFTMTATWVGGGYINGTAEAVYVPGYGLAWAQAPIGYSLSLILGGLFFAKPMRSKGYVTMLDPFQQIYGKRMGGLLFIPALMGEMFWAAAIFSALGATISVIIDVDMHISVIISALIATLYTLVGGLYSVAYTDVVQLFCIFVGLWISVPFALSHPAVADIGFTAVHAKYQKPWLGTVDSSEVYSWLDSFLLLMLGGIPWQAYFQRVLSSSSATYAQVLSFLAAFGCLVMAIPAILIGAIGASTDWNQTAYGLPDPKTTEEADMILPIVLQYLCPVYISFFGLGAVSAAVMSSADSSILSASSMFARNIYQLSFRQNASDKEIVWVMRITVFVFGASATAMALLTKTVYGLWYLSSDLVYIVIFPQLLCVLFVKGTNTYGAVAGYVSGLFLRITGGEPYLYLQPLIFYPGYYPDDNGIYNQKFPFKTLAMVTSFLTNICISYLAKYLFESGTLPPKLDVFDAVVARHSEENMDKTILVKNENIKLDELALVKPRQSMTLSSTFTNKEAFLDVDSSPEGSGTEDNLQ

[14] = HEK293 Cytotoxicity Assay Measured in Cell-Based System Using Plate Reader - 7071-01_Inhibitor_Dose_CherryPick_Activity_Set2.; assay type: functional
HeLa = test: HeLa cell cytotoxicity, dose response, cytotoxicity control, ATP luminescence, cherry-pick samples (AID 687004); assay type: functional, cell-based; settings: Homo sapiens
HEK293 = test: HEK293T cell cytotoxicity, dose response, cytotoxicity control, ATP luminescence, cherry-pick samples (AID 687005); assay type: functional, cell-based; settings: Homo sapiens;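 also: cells exposed to compound for 48 hours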
[15] = Luminescence Cell-Based Dose Response HTS to Identify Activators of Luciferase Translation or Activity in H4 […] Cells. [Related pubchem assays: 1829 (Project Summary), 1814 (Primary HTS)]; assay type: functional
cells [16] = test: cells; remark: listed apart in the source
cells [17] = settings: HEK293;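 also: cells exposed to compound for 48 hours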
H4 = test: Luminescence Cell-Based Dose Response HTS to Identify Activators of 5'UTR Stem-Loop Driven Prion Protein mRNA Translation in H4 Neuroglioblastoma Cells. [Related pubchem assays: 1829 (Project Summary), 1814 (Primary HTS)]; assay type: functional; settings: Homo sapiens
[18] = Luminescence Cell-Based Dose Confirmation HTS to Identify Activators of 5'UTR Stem-Loop Driven Alpha-Synuclein mRNA Translation in H4 Neuroglioblastoma Cells. [Related pubchem assays: 1829 (Project Summary), 1814 (Primary HTS)]; assay type: functional
[19] = target: T4, Methionyl-tRNA synthetase, putative (Trypanosoma brucei brucei, UniProt Q38C91); assay type: functional, Trypanosoma brucei brucei strain 927/4 GUTat10.1
[20] = target: T4, Methionyl-tRNA synthetase, putative; assay type: functional, Trypanosoma brucei brucei strain 927/4 GUTat10.1; remark: listed apart in the source
[21] = Late stage counterscreen for inhibitors of Trypanosoma brucei methionyl tRNA synthetase (MetRS): Luminescence-based cell-based high throughput dose response assay to identify compounds that are cytotoxic to Jurkat human T lymphocyte cells.; assay type: functional
[22] = Counterscreen for inhibitors of Trypanosoma brucei methionyl tRNA synthetase (MetRS): Luminescence-based cell-based high throughput dose response assay to identify compounds that are cytotoxic to Jurkat human T lymphocyte cells.; assay type: functional
[23] = cytotoxicity in HeLa cells, dose response, cytotoxicity control, cell-based, plate reader, dry powder (AID 651946); assay type: functional
[24] = target: T5, Corticotropin-releasing factor receptor 2/Corticotropin-releasing factor-binding protein (Homo sapiens, UniProt P24387+Q13324); test: activators of CRF receptor 2 with binding protein – uHTS hits, confirmation (AID 602473); assay type: functional; settings: read-out: EC50_Mean
T5 sequence (Q13324 whole entry): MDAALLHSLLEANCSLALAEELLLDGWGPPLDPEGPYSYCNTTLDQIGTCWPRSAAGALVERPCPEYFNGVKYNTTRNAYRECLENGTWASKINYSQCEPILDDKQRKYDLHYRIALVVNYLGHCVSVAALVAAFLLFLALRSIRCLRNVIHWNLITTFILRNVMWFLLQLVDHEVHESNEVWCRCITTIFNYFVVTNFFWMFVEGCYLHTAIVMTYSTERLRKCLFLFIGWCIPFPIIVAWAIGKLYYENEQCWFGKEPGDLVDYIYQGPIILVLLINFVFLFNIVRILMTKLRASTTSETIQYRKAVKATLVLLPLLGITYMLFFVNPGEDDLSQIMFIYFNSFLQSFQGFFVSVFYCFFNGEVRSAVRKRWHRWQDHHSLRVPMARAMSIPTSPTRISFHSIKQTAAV
T5 sequence (P24387 whole entry): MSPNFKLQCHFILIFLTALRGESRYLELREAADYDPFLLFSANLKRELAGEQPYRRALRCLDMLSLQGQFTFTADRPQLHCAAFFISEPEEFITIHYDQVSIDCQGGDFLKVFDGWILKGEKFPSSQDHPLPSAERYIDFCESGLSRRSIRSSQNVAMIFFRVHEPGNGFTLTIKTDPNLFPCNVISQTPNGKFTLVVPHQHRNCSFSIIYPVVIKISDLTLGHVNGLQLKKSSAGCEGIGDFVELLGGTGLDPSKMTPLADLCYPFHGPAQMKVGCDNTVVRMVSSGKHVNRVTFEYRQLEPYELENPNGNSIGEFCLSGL

[25] = human group III sPLA2 inhibitors, dose response, biochemical, QFRET, IC50 (AID 743457);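 also: green fluorescence rise as the enzyme cleaves BODIPY PC-A2 in liposomes; potency for inhibition of the enzyme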
Vero [26] = test: cells; assay type: functional, cell-based; settings: Chlorocebus sabaeus
Vero [27] = test: cells; assay type: functional; settings: Chlorocebus sabaeus
[28] = IRAP inhibitors, dose response, selectivity assay for ERAP1 modulator project, biochemical, Leu-AMC fluorescence, cherry-picked samples, set 2 (AID 743340)

T4 sequence (Q38C91 whole entry): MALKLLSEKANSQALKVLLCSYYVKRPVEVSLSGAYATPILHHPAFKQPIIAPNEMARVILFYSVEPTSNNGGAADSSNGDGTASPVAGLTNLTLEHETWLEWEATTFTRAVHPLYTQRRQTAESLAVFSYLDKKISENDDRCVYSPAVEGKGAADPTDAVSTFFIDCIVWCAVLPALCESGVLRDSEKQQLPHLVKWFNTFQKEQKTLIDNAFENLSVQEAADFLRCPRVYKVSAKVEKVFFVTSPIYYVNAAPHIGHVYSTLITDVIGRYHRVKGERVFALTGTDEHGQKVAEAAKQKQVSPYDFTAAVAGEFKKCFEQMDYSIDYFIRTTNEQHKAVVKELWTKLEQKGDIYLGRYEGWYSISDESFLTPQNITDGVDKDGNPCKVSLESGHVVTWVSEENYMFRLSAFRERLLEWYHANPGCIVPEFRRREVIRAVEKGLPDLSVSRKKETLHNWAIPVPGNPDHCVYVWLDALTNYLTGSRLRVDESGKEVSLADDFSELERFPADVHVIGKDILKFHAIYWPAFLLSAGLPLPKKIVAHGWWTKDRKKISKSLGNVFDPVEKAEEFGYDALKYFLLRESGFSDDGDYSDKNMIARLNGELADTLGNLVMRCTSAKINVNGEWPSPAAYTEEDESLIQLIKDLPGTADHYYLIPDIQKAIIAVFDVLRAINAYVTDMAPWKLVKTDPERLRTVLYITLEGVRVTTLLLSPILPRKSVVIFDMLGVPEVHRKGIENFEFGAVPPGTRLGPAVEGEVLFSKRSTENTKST
Chain of Potassium channel subfamily K member 3 (O14649 whole entry): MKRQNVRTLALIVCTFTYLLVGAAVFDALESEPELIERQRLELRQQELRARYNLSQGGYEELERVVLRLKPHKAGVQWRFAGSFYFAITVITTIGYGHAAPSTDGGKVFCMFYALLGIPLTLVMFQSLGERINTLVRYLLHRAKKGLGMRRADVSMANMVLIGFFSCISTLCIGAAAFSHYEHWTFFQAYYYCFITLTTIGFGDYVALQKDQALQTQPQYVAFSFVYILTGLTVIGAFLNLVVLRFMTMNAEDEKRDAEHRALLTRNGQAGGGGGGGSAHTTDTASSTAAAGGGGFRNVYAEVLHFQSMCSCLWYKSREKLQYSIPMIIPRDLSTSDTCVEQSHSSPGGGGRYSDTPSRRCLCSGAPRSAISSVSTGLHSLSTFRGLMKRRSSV
Chain of Potassium channel subfamily K member 9 (Q9NPC2 whole entry): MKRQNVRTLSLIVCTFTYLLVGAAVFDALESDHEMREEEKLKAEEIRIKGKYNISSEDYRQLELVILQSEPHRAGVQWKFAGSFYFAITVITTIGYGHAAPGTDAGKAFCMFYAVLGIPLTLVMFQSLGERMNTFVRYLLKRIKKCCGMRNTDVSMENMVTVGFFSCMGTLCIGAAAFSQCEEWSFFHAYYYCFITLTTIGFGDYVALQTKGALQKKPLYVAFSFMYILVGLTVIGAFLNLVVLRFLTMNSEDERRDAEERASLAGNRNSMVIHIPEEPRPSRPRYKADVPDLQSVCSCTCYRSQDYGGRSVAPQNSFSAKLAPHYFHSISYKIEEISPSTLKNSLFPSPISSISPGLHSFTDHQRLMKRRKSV
Chain of Caspase-6 (P55212 24-179 limits assumed): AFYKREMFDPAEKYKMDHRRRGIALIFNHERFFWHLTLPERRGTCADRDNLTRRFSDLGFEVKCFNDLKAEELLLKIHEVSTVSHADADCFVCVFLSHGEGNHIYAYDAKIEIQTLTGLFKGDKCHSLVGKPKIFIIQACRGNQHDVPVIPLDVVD
Chain of Caspase-6 (P55212 194-293 limits assumed): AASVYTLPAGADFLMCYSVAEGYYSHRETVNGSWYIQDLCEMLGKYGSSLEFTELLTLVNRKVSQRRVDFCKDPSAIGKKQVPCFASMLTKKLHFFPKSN
Chain of Metabotropic glutamate receptor 5 (P31424 whole entry): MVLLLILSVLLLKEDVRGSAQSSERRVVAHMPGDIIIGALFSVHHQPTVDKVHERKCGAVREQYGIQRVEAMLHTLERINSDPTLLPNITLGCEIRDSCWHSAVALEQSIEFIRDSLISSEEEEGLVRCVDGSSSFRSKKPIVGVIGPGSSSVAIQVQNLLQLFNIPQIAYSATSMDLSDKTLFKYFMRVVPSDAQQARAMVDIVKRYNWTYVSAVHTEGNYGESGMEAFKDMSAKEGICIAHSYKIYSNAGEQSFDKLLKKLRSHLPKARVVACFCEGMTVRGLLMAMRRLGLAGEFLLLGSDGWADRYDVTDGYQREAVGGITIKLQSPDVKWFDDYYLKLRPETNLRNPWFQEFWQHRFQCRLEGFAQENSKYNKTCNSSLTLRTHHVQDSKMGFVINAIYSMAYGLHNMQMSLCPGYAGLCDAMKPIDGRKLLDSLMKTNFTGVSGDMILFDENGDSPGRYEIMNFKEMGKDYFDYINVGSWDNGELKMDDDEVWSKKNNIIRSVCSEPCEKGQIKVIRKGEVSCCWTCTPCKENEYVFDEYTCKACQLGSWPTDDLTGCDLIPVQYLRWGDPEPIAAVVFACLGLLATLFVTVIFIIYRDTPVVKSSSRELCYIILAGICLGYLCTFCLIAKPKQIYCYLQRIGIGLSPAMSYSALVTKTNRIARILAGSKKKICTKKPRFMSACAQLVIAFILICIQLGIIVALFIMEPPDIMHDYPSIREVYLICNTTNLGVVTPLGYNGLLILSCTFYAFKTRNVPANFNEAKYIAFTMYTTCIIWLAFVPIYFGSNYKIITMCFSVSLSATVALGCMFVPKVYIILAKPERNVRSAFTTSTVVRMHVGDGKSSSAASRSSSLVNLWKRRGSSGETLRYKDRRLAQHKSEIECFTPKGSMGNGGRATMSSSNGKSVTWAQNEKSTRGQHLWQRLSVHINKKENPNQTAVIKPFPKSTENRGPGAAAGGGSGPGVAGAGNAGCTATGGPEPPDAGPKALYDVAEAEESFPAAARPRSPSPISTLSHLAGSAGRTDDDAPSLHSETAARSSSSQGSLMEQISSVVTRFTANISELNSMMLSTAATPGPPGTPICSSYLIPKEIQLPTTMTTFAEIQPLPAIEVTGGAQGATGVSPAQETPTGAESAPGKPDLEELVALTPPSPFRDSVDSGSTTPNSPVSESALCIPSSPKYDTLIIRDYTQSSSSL
Chain of Nuclear receptor subfamily 5 group A member 2 (O00482 whole entry): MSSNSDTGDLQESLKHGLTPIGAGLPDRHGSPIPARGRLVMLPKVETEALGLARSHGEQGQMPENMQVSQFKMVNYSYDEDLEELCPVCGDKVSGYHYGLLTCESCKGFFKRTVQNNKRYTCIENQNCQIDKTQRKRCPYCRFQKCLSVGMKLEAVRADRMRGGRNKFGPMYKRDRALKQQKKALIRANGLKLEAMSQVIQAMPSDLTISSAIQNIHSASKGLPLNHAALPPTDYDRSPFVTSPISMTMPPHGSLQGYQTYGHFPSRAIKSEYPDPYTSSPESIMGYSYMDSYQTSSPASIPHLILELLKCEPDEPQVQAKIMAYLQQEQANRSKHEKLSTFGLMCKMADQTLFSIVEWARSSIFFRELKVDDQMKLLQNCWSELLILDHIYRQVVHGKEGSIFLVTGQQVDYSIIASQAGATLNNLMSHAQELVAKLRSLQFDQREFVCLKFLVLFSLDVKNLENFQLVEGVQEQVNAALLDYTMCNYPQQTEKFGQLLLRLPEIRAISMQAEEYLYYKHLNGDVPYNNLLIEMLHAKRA
Chain of Steroidogenic factor 1 (Q13285 whole entry): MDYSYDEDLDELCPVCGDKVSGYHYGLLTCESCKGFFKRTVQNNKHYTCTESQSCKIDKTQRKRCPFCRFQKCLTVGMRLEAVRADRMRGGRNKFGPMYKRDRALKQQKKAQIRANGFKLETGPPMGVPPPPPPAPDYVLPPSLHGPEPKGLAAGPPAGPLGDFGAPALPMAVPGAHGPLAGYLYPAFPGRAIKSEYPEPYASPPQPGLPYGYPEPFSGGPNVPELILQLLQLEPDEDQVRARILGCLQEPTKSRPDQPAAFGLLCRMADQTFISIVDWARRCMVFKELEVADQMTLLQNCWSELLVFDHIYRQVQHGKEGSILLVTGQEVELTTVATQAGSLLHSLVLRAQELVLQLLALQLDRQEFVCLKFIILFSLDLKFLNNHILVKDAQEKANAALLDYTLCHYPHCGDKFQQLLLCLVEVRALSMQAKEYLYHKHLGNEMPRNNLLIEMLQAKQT

SMILES: Cc1csc(SCC(=O)Nc2sccc2C#N)n1
- EC50 [1]: > 67.6 µM (inactive)
- EC50 (cells [2]): > 67.6 µM (inactive)

SMILES: O=C(O)C1CCCCC1C(=O)N1CCc2ccccc2C1CN1Cc2ccccc2C1=O (stereo not drawn)
- AC50 [3]: 91.2 µM (active)
- AC50 [4]: 39.1 µM (active)

SMILES: CS(=O)(=O)N(CC(=O)N1CCc2ccccc21)c1ccccc1Cl
- EC50 [5]: 10 µM (inconclusive)

SMILES: Cc1cccc(C(=O)Nc2cccc(NC(=O)c3ccc(C(C)(C)C)cc3)c2)c1
- IC50 [6]: 0.184 µM (active)
- IC50 [7]: 32.8 µM (active)

SMILES: CCOc1ccccc1NC(=O)c1cccc(NC(=O)c2cccc(C)c2)c1
- IC50 [8]: 0.29 µM (active)
- IC50 [6]: 0.017 µM (active)

SMILES: Oc1ccc(Cl)cc1CNc1cccc2cccnc12
- EC50 (Streptococcus): > 150 µM (not active)
- EC50 (Streptokinase A): > 150 µM (not active)
- EC50 [9]: 23.9 µM (active)
- AC50 (Caspase-6): 48.4 µM (active)

SMILES: COC(=O)c1ccc(NC(=O)CSc2ccc(-c3ccccn3)nn2)cc1
- IC50 [10]: 35.9 µM (inactive)
- IC50 [11]: 35.9 µM (inactive)
- IC50 (Steroidogenic factor 1): 35.9 µM (inactive)
- AC50 [12]: 115 µM (active)

SMILES: CCn1nc(C)c(CNC(=O)c2ccc(OC)c(OC3CCN(C(C)C)CC3)c2)c1C
- IC50 [13]: 1.75 µM (active)

SMILES: C[C@@H]1CN([C@@H](C)CO)S(=O)(=O)c2ccc(C#CC3CC3)cc2O[C@H]1CN(C)CC1CCOCC1
- AC50 [14]: 31.7 µM (active)
- AC50 (HeLa): > 52 µM (inactive)
- AC50 (HEK293): 31.7 µM (active)

SMILES: CC1CCN(S(=O)(=O)N2CCC(C(=O)NC3CCCC3)CC2)CC1
- EC50 [15]: > 120 µM (not active)
- AC50 (cells [16]): > 70 µM (inactive)
- AC50 (cells [17]): > 52 µM (inactive)
- EC50 (H4): > 120 µM (not active)
- EC50 [18]: > 120 µM (not active)

SMILES: COc1ccccc1NS(=O)(=O)c1cccc(NC(=O)Nc2ccccc2)c1
- IC50 [19]: 1.27 µM (active)
- IC50 [20]: 0.644 µM (active)
- IC50 [21]: 64.2 µM (inactive)
- IC50 [22]: 48.8 µM (inactive)

SMILES: FC(F)(F)Oc1ccccc1-c1nnc(SCc2ccccc2)o1
- AC50 [23]: > 52 µM (inactive)

SMILES: Cc1ccc(C(=O)NNC(=S)NC(=O)c2ccco2)cc1
- EC50 (Streptococcus): 8.89 µM (active)
- EC50 [24]: 7.87 µM (active)
- IC50 [25]: > 122 µM (inactive)
- EC50 [9]: 1.87 µM (active)
- IC50 (Vero [26]): 23.6 µM (active)
- CC50 (Vero [27]): > 25 µM (active)

SMILES: Cc1noc(C)c1S(=O)(=O)Nc1ccc2c(c1)C(=O)N([C@H](C)CO)C[C@H](C)[C@H](CN(C)Cc1ccc3c(c1)OCO3)OCCCC[C@@H](C)O2
- AC50 [28]: 15.7 µM (active)
